Reference: PubChem BioAssay (NCI)
Several values for one entry are separate records, joined by “and”; a condition that tells them apart may be missing. Equal entries are not always repeated.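 Exposure lasted 48 hours, with cells grown in 96-well plates and compounds tested at five concentrations. GI50: concentration for 50% inhibition of growth. TGI: concentration producing complete growth inhibition.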

Columns and labels:
Experiment in all cases: NCI-60 cell line screen, 48 h
NCI/ADR-RES ovarian = test system: NCI/ADR-RES ovarian
HS 578T breast = test system: HS 578T breast
MDA-MB-435 = test system: MDA-MB-435
DMS 273 small cell lung = test system: DMS 273 small cell lung
SNB-78 CNS = test system: SNB-78 CNS
LXFL 529 NSCLC = test system: LXFL 529 NSCLC
MDA-N = test system: MDA-N
RXF-631 renal = test system: RXF-631 renal
HOP-18 NSCLC = test system: HOP-18 NSCLC

| SMILES | GI50 (NCI/ADR-RES ovarian) | TGI (NCI/ADR-RES ovarian) | GI50 (HS 578T breast) | TGI (HS 578T breast) | GI50 (MDA-MB-435) | TGI (MDA-MB-435) | also measured |
| --- | --- | --- | --- | --- | --- | --- | --- |
| O=C(NCCN1CCNCC1)c1ccc(Nc2nc3ccccc3c3occc23)cc1 | 21 µM | 46.5 µM | 14.3 µM | 38.4 µM | 3.1 µM | 8.51 µM |  |
| O=C1c2ccccc2-c2c1c1ccccc1c(=O)n2CCNCCn1c2c(c3ccccc3c1=O)C(=O)c1ccccc1-2 | > 25 µM | > 25 µM | > 25 µM | > 25 µM | > 25 µM | > 25 µM |  |
| CC1=NN(C(=O)c2ccncc2)C(=O)C1N=Nc1ccc(F)cc1 (centres undefined) |  |  |  |  |  |  | TGI (DMS 273 small cell lung): > 100 µM; TGI (SNB-78 CNS): > 100 µM; TGI (LXFL 529 NSCLC): > 100 µM |
| COc1ccc(F)c(F)c1C(=O)c1cnc(NC2CCN(S(C)(=O)=O)CC2)nc1N | 2.63 µM and 1.65 µM | > 100 µM | 1.52 µM and 0.695 µM | 6.12 µM and > 8.4 µM | 0.419 µM and 0.309 µM | 3.72 µM and > 4.89 µM |  |
| O=C(O)c1ccccc1C(=O)c1ccc2c(c1)Cc1ccccc1-2 |  | > 100 µM |  | > 100 µM |  | > 100 µM | TGI (MDA-N): > 100 µM |
| COc1ccc2c(NCCCCCCNc3c4ccccc4nc4cc(OC)ccc34)c3ccccc3nc2c1 |  | 18.8 µM |  | 0.937 µM |  | 1.26 µM | TGI (RXF-631 renal): 3.97 µM; TGI (MDA-N): 1.2 µM; TGI (HOP-18 NSCLC): 10.9 µM |
| CCCCCCCCCCCCCC[n+]1cccc(C(N)=O)c1 | 25.6 µM | > 80.3 µM | 2.64 µM | 10.3 µM | 1.5 µM | 3.24 µM |  |
| c1cnn2ncc(-c3ccnc(Nc4ccc5c(c4)OCCO5)n3)c2c1 | 0.0781 µM | 1.65 µM | 0.0747 µM | 0.323 µM | 0.0813 µM | 0.516 µM |  |
| COc1ccc(Nc2nccc(N3CCN(c4c5ccc(Cl)cc5nc5ccc(OC)cc45)CC3)n2)cc1 | 7.41 µM | > 100 µM | 5.78 µM | > 100 µM | 8.28 µM | > 100 µM |  |
| CC(C)Oc1ccc(C(=O)Cn2ccnc2)cc1-n1c(CN2CCN(C(=O)COc3ccc(Cl)cc3)CC2)nc2ccccc2c1=O | > 100 µM | > 100 µM | 15.8 µM | 46.6 µM | 15.6 µM | 33.6 µM |  |
| CC1(C)CC(=O)C(CC2C(=O)c3ccccc3C2=O)C(=O)C1 |  |  |  |  |  |  | TGI (DMS 273 small cell lung): > 100 µM; TGI (SNB-78 CNS): > 100 µM; TGI (LXFL 529 NSCLC): > 100 µM; TGI (HOP-18 NSCLC): > 100 µM |
| CN1c2ccccc2SC2C(c3ccccc3)=NOC21 (centres undefined) |  | 87.3 µM |  | > 100 µM |  |  | TGI (MDA-N): 52.8 µM |
| c1ccc(-c2nc(N3CCCNCC3)c3nc(-c4ccccc4)oc3n2)cc1 | 1.91 µM | 3.86 µM | 1.86 µM | 3.94 µM | 1.64 µM | 3.08 µM |  |
| Cc1cccc(C)c1N1C(=O)C(=O)C(c2nc3ccccc3s2)C(=Nc2cccc3c(=O)[nH][nH]c(=O)c23)C1=O (centres undefined) |  |  |  |  |  |  | TGI (DMS 273 small cell lung): > 100 µM; TGI (SNB-78 CNS): > 100 µM; TGI (LXFL 529 NSCLC): > 100 µM; TGI (HOP-18 NSCLC): > 100 µM |
| CC(C)[O-].CC(C)[O-].O=c1cccccc1[O-].O=c1cccccc1[O-].[Ti+4] |  |  |  |  |  |  | GI50 (LXFL 529 NSCLC): 31 µM; TGI (LXFL 529 NSCLC): > 100 µM; GI50 (HOP-18 NSCLC): > 100 µM; TGI (HOP-18 NSCLC): > 100 µM |
| Cc1cccc(N=Nc2ccc(N=Nc3c(O)ccc4ccccc34)cc2C)c1 |  | 50.7 µM |  | > 100 µM |  | > 100 µM |  |

| SMILES | GI50 (NCI/ADR-RES ovarian) | TGI (NCI/ADR-RES ovarian) | GI50 (HS 578T breast) | TGI (HS 578T breast) | GI50 (MDA-MB-435) | TGI (MDA-MB-435) | also measured |
| --- | --- | --- | --- | --- | --- | --- | --- |
| O=C(Cl)C1=C(c2ccccc2)C1c1ccccc1 (centres undefined) |  |  |  | > 100 µM |  | > 100 µM | TGI (MDA-N): > 100 µM |
| CC1c2ccccc2N=C2SC(=S)N3CCN=C3N21 (centres undefined) | > 100 µM | > 100 µM |  |  | > 100 µM | > 100 µM |  |
| COc1c(O)c(OC)c2oc(-c3ccc(O)cc3)c(OC)c(=O)c2c1O |  | > 100 µM |  | 57 µM |  | > 100 µM | TGI (MDA-N): > 100 µM |
| CC(=Nc1ccc(S(N)(=O)=O)cc1)c1c(O)[nH]c2ccccc12 | > 25 µM | > 25 µM | > 25 µM | > 25 µM | > 25 µM | > 25 µM |  |
| [2H]c1nc(=Nc2cc(NC(=O)C=C)c(N(C)CCN(C)C)cc2OC)[nH]c(-c2cn(C([2H])([2H])[2H])c3ccccc23)c1[2H] | 1.39 µM | 5.02 µM | 2.59 µM | 9.74 µM | 1.62 µM | 3.09 µM |  |
| CC(C)[O-].CC(C)[O-].CN(CCN(C)Cc1cc(F)cc(F)c1[O-])Cc1cc(F)cc(F)c1[O-].[Ti+4] | 0.863 µM | 7.05 µM | 1.62 µM | 6.22 µM | 0.585 µM | 2.1 µM |  |
| COc1cc2nc(-c3ccc(C(F)(F)F)cc3)cc(OCCCN3CCCC3)c2cc1OC | 0.47 µM | 39 µM | 2.48 µM | 19.3 µM | 1.15 µM | 15.1 µM |  |
| Cn1c(=O)nc2n(-c3ccc(Cl)c(C(F)(F)F)c3)c3ccccc3nc-2c1=O |  |  |  |  |  |  | TGI (DMS 273 small cell lung): > 100 µM; TGI (SNB-78 CNS): > 100 µM; TGI (LXFL 529 NSCLC): > 100 µM; TGI (HOP-18 NSCLC): > 100 µM |
| O=C1c2cccc3cccc(c23)C(=O)N1O |  | > 100 µM |  | > 100 µM |  | > 100 µM | TGI (MDA-N): > 100 µM |
| COc1ccc(-c2cnoc2-c2cc(OC)c3c(c2)OCCO3)cc1 | < 0.0132 µM | 49.5 µM | 0.0283 µM | 11.7 µM |  |  |  |
| O=[N+]([O-])c1ccc(-c2cc3c(Nc4ccc(Cl)c(C(F)(F)F)c4)ncnc3s2)cc1 | 1.36 µM | > 100 µM |  |  | 2.24 µM | > 100 µM |  |
| CCN(CC)c1ccc(/C=C/C2=[N+](C)c3ccccc3C2(C)C)c(C)c1 | 2.24 µM | 13 µM | 0.129 µM | 16.5 µM | 0.0653 µM | 1.32 µM |  |
| Cc1nc(-c2cccnc2)sc1C(=O)/C=C/c1cccc([N+](=O)[O-])c1 |  |  |  |  |  |  | TGI (RXF-631 renal): > 100 µM; TGI (DMS 273 small cell lung): > 100 µM; TGI (HOP-18 NSCLC): > 100 µM |
| N.N.N.N.N.O=S(=O)([O-])S(=O)(=O)[O-].[Co+3] |  |  |  |  |  |  | GI50 (DMS 273 small cell lung): > 100 µM; TGI (DMS 273 small cell lung): > 100 µM; GI50 (SNB-78 CNS): > 100 µM; TGI (SNB-78 CNS): > 100 µM; GI50 (LXFL 529 NSCLC): > 100 µM; TGI (LXFL 529 NSCLC): > 100 µM |
| C=C1C(=O)C23C(O)C1CC[C@H]2C12CCCC(C)(COC(C)=O)[C@H]1[C@H](O)[C@]3(O)OC2 (some centres undefined) |  |  |  | 9.99 µM |  |  | TGI (DMS 273 small cell lung): 4.22 µM; TGI (SNB-78 CNS): 2.96 µM; TGI (LXFL 529 NSCLC): 1.69 µM; TGI (HOP-18 NSCLC): 2.54 µM |
| CSc1ccc(N(C)c2nc(C)nc3c2CCC3)cc1 | < 0.01 µM | 12.6 µM | < 0.01 µM | > 100 µM |  |  |  |
